Reference: patent publication US10894087B2, “Multi-arm polymeric prodrug conjugates of cabazitaxel-based compounds” (Nektar Therapeutics, priority 2010, dated 2021)
Like-named read-outs stand apart in the source and are kept apart here.

Experiments:
[1] = test system: H460 non-small cell lung cancer (NSCLC) implants; details: for % TGD / MTV (Median Tumor Volume) / Median TTE (Median Time to Endpoint) / TGD (tumor growth delay compared to vehicle) / CR (Number of Complete Regressions) / PR (Number of Partial Regressions) / TFS (Number of Tumor Free Survivors) / Deaths: iv, qwk x 3; for CR (Number of Complete Regressions) / PR (Number of Partial Regressions) / TFS (Number of Tumor Free Survivors) / Deaths: N=10; for Complete regression, i.e., no detectable tumor (number of animals): through day 45, dose not given
Experimental: Purpose. Studies were conducted to assess the growth inhibitory effects of PEGylated-conjugates of cabazitaxel on H460 non-small cell lung cancer (NSCLC) implants in athymic nu/nu mice.
Experimental plan. These studies were conducted using routine methods and materials that are familiar to those skilled in the art. Briefly, 8 to 12 week old female nu/nu mice were injected subcutaneously in the flank with 1×10^7 H460 tumor cells in 0.2 mL sterile buffer. […] Animals received three intravenous doses of test article at one week intervals beginning on day 1. Cabazitaxel solutions were prepared in D5W containing 5% Tween 80:10% ethanol. PEG-cabazitaxel conjugates were prepared in D5W. The administration volume for all test articles was 10 mL/kg. The test doses were selected to represent the MTD and ½ the MTD for each test compound. The tables list the actual mg/kg for each test article and the corresponding cabazitaxel equivalent calculated based on the weight-percent cabazitaxel content for each PEGylated conjugate.
Animals were weighed on days 1-5, 7, 9, 11, 13 then biweekly until the end of the study. Tumor sizes were measured using calipers biweekly throughout the study and tumor volumes were calculated using the formula for an ellipsoid sphere: L×W^2/2=mm^3, where L and W are the major axis dimensions of the tumor in mm. Additional parameters that were monitored were the number of non-specific deaths, number of partial and complete tumor regressions, number of tumor-free survivors, and the time required for individual animals' tumors to reach 2000 mm^3. The median time for a tumor to reach 2000 mm^3 in the treatment groups (T) and control group (C) was used to calculate of the overall delay in the growth of the median tumor (TGD). Animals were monitored individually until reaching the experimental endpoint: tumor size of 2000 mm^3 or 45 days, whichever came first. […] When the study endpoint was reached, the animals were euthanized.

[2] = Maximum tolerated dose (MTD) study of PEGylated conjugates of cabazitaxel in athymic mice; format: in vivo, female athymic nu/nu mice; details: qw x 3, iv; for Treatment-Related Deaths / BW Nadir / BW Nadir (day): MTD study 20K conjugates; for Treatment-Related Deaths: N=5
Experimental: Purpose. This study was performed to determine appropriate doses of each compound for tumor xenograft studies. In those studies, it is desirable to administer the maximum dose of test compound that will not cause excessive loss of body weight. In general, loss of ˜15% of the initial body weight of the animal is typically the maximum desired.
Experimental procedure. MTD for 4-arm-conjugated to cabazitaxel were determined in female athymic nu/nu mice using standard methods. Briefly, 8-12 week old mice were administered test compounds or cabazitaxel intravenously at one week intervals for a total of three doses per mouse (qw×3, iv) as shown in Tables 1 and 2. For all PEG-conjugated test compounds, the doses of both the conjugate and released cabazitaxel, calculated from the cabazitaxel content of the respective conjugate, are shown. […] PEG-cabazitaxel conjugates were prepared in D5W. […] Mice were observed daily for clinical signs and body weights were recorded on days 1-5 and then biweekly until the end of study. All procedures were conducted in compliance with IACUC requirements. […] For any group with two measurements of mean body weight loss of greater than 20%, dosing was stopped and recovery was allowed. Within a group with greater than 20% mean weight loss, individual animals greater than 30% body weight loss were euthanized. Compound dosing was terminated for any group in which mean weight loss exceeded 20% or >10% of animals died. Moribund animals were euthanized and all animals were euthanized at end of study (day 30).
Results. The results for the study MTD “20K Conjugates” are summarized in Table 3 and FIG. 1 while the results for the MTD “30K and 40K Conjugates” study are summarized Table 4 and FIG. 2. […] It should be noted that this is not meant to be a definitive MTD, but is simply a guide to select an appropriate dose for conducting tumor xenograft studies using this administration route and schedule. Note too, that these MTD are given as cabazitaxel equivalents. The actual dose of each conjugate must be corrected for the wt % of cabazitaxel in that specific conjugate.

[3] = 20K conjugate xenograft study, 10 mg/kg cabazitaxel eq.
[4] = 20K conjugate xenograft study, 20 mg/kg cabazitaxel eq.
[5] = 30K and 40K conjugate xenograft study, 10 mg/kg cabazitaxel eq.
[6] = 30K and 40K conjugate xenograft study, 20 mg/kg cabazitaxel eq.
[7] = 30K and 40K conjugate xenograft study
[8] = 20K conjugate xenograft study, 12.5 mg/kg cabazitaxel eq.
[9] = 20K conjugate xenograft study, 25 mg/kg cabazitaxel eq.
[10] = 30K and 40K conjugate xenograft study, 6 mg/kg cabazitaxel eq.
[11] = 30K and 40K conjugate xenograft study, 12 mg/kg cabazitaxel eq.
[12] = 30K and 40K conjugate xenograft study, 15 mg/kg cabazitaxel eq.
[13] = 30K and 40K conjugate xenograft study, 30 mg/kg cabazitaxel eq.

## 4-ARM-PEG20K-Alaninate-Linked Cabazitaxel Conjugate [4-arm-PEG20K-CM-alanine-Cabazitaxel]
[1]; [3]
  % TGD: 93%
  MTV (Median Tumor Volume): 908 mm^3
  Median TTE (Median Time to Endpoint): 35.6 days
  TGD (tumor growth delay compared to vehicle): 17.1 days
  CR (Number of Complete Regressions): 0
  PR (Number of Partial Regressions): 0
  TFS (Number of Tumor Free Survivors): 0
[1]; [4]
  % TGD: 154%
  MTV (Median Tumor Volume): 1470 mm^3
  TGD (tumor growth delay compared to vehicle): 28.5 days
  CR (Number of Complete Regressions): 0
  PR (Number of Partial Regressions): 0
  TFS (Number of Tumor Free Survivors): 0

## 4-ARM-PEG40K-Alaninate-Linked Cabazitaxel Conjugate [4-arm-PEG40K-CM-alanine-Cabazitaxel]
[1]; [5]
  % TGD: 101%
  Median TTE (Median Time to Endpoint): 30.1 days
  TGD (tumor growth delay compared to vehicle): 15.1 days
  CR (Number of Complete Regressions): 0
  PR (Number of Partial Regressions): 0
  TFS (Number of Tumor Free Survivors): 0
[1]; [6]
  % TGD: 208%
  MTV (Median Tumor Volume): 184 mm^3
  TGD (tumor growth delay compared to vehicle): 31.1 days
  CR (Number of Complete Regressions): 1
  PR (Number of Partial Regressions): 4
  TFS (Number of Tumor Free Survivors): 1
[1]; [7]
  Complete regression, i.e., no detectable tumor (number of animals): one

## 4-ARM-PEG20K-Butanoate-Linked Cabazitaxel Conjugate [4-arm-PEG20K-BA-Cabazitaxel]
[1]; 20K conjugate xenograft study
  Tumor growth inhibition compared with cabazitaxel and the other conjugates (in words): did not provide greater tumor growth inhibition than either cabazitaxel or the other PEG-cabazitaxel conjugates tested in this study
[1]; [8]
  % TGD: 36%
  Median TTE (Median Time to Endpoint): 25.3 days
  TGD (tumor growth delay compared to vehicle): 6.7 days
  CR (Number of Complete Regressions): 0
  Deaths: 0
  PR (Number of Partial Regressions): 0
  TFS (Number of Tumor Free Survivors): 0
[1]; [9]
  % TGD: 112%
  Median TTE (Median Time to Endpoint): 39.3 days
  TGD (tumor growth delay compared to vehicle): 20.8 days
  CR (Number of Complete Regressions): 0
  Deaths: 0
  PR (Number of Partial Regressions): 0
  TFS (Number of Tumor Free Survivors): 0
[2]; 7.5 mg/kg cabazitaxel eq.
  Treatment-Related Deaths: 0
[2]; 15 mg/kg cabazitaxel eq.
  BW Nadir: −1.3%
  BW Nadir (day): 2 days
  Treatment-Related Deaths: 0
[2]; 30 mg/kg cabazitaxel eq.
  BW Nadir: −16.6%
  BW Nadir (day): 20 days
  Treatment-Related Deaths: 0
[2]; athymic nu/nu mice, guide value, not a definitive MTD
  Estimated MTD, cabazitaxel equivalents: 25 mg/kg

## 4-ARM-PEG30K-Alaninate-Linked Cabazitaxel Conjugate [4-arm-PEG30K-CM-alanine-Cabazitaxel]
[1]; [10]
  % TGD: 39%
  Median TTE (Median Time to Endpoint): 20.8 days
  TGD (tumor growth delay compared to vehicle): 5.9 days
  CR (Number of Complete Regressions): 0
  PR (Number of Partial Regressions): 0
  TFS (Number of Tumor Free Survivors): 0
[1]; [11]
  % TGD: 158%
  MTV (Median Tumor Volume): 600 mm^3
  Median TTE (Median Time to Endpoint): 38.6 days
  TGD (tumor growth delay compared to vehicle): 23.6 days
  CR (Number of Complete Regressions): 0
  PR (Number of Partial Regressions): 0
  TFS (Number of Tumor Free Survivors): 0

## 4-ARM-PEG40K-Glycinate-Linked Cabazitaxel Conjugate [4-arm-PEG40K-CM-glycine-Cabazitaxel]
[1]; [12]
  % TGD: 146%
  MTV (Median Tumor Volume): 1632 mm^3
  Median TTE (Median Time to Endpoint): 36.8 days
  TGD (tumor growth delay compared to vehicle): 21.9 days
  CR (Number of Complete Regressions): 0
  PR (Number of Partial Regressions): 0
  TFS (Number of Tumor Free Survivors): 0
[1]; [13]
  % TGD: 208%
  MTV (Median Tumor Volume): 32 mm^3
  TGD (tumor growth delay compared to vehicle): 31.1 days
  CR (Number of Complete Regressions): 1
  TFS (Number of Tumor Free Survivors): 1
[1]; 30K and 40K conjugate xenograft study, 30 mg/kg cabazitaxel eq., 30 mg/kg
  PR (Number of Partial Regressions): 9
[1]; 30K and 40K conjugate xenograft study, 30 mg/kg cabazitaxel eq., listed as 4-arm-PEG40K-CM-glycine-cabazitaxel, 30 mg/kg
  PR (Number of Partial Regressions): 10
[1]; [7]
  Complete regression, i.e., no detectable tumor (number of animals): one

## 4-ARM-PEG20K-Glycinate-Linked Cabazitaxel Conjugate [4-arm-PEG20K-CM-glycine-Cabazitaxel]
[1]; [3]
  % TGD: 63%
  MTV (Median Tumor Volume): 1200 mm^3
  Median TTE (Median Time to Endpoint): 30.1 days
  TGD (tumor growth delay compared to vehicle): 11.6 days
  CR (Number of Complete Regressions): 0
  PR (Number of Partial Regressions): 0
  TFS (Number of Tumor Free Survivors): 0
[1]; [4]
  % TGD: 154%
  MTV (Median Tumor Volume): 1183 mm^3
  TGD (tumor growth delay compared to vehicle): 28.5 days
  CR (Number of Complete Regressions): 0
  PR (Number of Partial Regressions): 4
  TFS (Number of Tumor Free Survivors): 0

## 4-ARM-PEG30K-Glycinate-Linked Cabazitaxel Conjugate [4-arm-PEG30K-CM-glycine-Cabazitaxel]
[1]; [5]
  % TGD: 119%
  MTV (Median Tumor Volume): 726 mm^3
  Median TTE (Median Time to Endpoint): 32.7 days
  TGD (tumor growth delay compared to vehicle): 17.8 days
  CR (Number of Complete Regressions): 0
  PR (Number of Partial Regressions): 1
  TFS (Number of Tumor Free Survivors): 0
[1]; [6]
  % TGD: 208%
  MTV (Median Tumor Volume): 478 mm^3
  TGD (tumor growth delay compared to vehicle): 31.1 days
  CR (Number of Complete Regressions): 1
  PR (Number of Partial Regressions): 6
  TFS (Number of Tumor Free Survivors): 1
[1]; [7]
  Complete regression, i.e., no detectable tumor (number of animals): one
